Source: the kinase profiling compilation of Christmann-Franck et al. (2016)
Where “and” joins values, the source holds several entries; their conditions need not be identical. Identical values can stand only once.

Tests used:
Assay in all cases: Caliper, Mobility shift assay off-chip
CAMK4 (human) = CAMK4 (human) (UniProt Q16566)
AURKC (human) = AURKC (human) (UniProt Q9UQB9)
PRKD3 (human) = PRKD3 (human) (UniProt O94806)
FGFR4 (human) = FGFR4 (human) (UniProt P22455)
STK3 (human) = STK3 (human) (UniProt Q13188)
BTK (human) = BTK (human) (UniProt Q06187)
AKT1 (human) = AKT1 (human) (UniProt P31749)
RPS6KA3 KD1 KD2 (human) = RPS6KA3 KD1 KD2 (human) (UniProt P51812)
PRKCB2 (human) = PRKCB2 (human) (UniProt P05771)
MAPKAPK2 (human) = MAPKAPK2 (human) (UniProt P49137)
TSSK2 (human) = TSSK2 (human) (UniProt Q96PF2)
TSSK1B (human) = TSSK1B (human) (UniProt Q9BXA7)
CAMK2G (human) = CAMK2G (human) (UniProt Q13555)
FER (human) = FER (human) (UniProt P16591)
LYN (human) = LYN (human) (UniProt P07948)
FYN (human) = FYN (human) (UniProt P06241)
EGFR (human) = EGFR (human) (UniProt P00533)
RPS6KA5 KD1 KD2 (human) = RPS6KA5 KD1 KD2 (human) (UniProt O75582)
FGFR2 (human) = FGFR2 (human) (UniProt P21802)
MAPK11 (human) = MAPK11 (human) (UniProt Q15759)
MAPK13 (human) = MAPK13 (human) (UniProt O15264)
[1] = system: ABL1 (human), P00519 [Q252H]
PRKG1 (human) = PRKG1 (human) (UniProt Q13976)
PRKCG (human) = PRKCG (human) (UniProt P05129)
SGK2 (human) = SGK2 (human) (UniProt Q9HBY8)
AURKA (human) = AURKA (human) (UniProt O14965)
PRKCE (human) = PRKCE (human) (UniProt Q02156)
PDGFRA (human) = PDGFRA (human) (UniProt P16234)
CDK2 (human) = CDK2 (human) (UniProt P24941)
AURKB (human) = AURKB (human) (UniProt Q96GD4)
PRKCH (human) = PRKCH (human) (UniProt P24723)
RPS6KA2 KD1 KD2 (human) = RPS6KA2 KD1 KD2 (human) (UniProt Q15349)
[2] = system: FLT3 (human), P36888 [D835Y]
CAMK2D (human) = CAMK2D (human) (UniProt Q13557)

FYN (human), sequence (P06241 whole entry, looked up): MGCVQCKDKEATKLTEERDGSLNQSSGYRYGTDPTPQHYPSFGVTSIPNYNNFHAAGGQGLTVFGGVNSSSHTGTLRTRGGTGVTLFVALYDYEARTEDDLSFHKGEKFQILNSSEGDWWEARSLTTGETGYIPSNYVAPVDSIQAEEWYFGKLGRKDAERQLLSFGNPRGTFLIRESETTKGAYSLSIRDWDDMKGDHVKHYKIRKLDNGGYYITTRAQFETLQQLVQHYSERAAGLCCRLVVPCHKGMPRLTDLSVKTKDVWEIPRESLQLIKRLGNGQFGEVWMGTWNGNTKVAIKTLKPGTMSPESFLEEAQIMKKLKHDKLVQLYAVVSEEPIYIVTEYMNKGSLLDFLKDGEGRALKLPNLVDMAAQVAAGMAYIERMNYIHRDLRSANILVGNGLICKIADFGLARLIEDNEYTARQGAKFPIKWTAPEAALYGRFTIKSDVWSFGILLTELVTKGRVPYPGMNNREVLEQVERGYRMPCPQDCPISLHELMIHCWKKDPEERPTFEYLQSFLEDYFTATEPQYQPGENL
FGFR2 (human), sequence (P21802 whole entry, looked up): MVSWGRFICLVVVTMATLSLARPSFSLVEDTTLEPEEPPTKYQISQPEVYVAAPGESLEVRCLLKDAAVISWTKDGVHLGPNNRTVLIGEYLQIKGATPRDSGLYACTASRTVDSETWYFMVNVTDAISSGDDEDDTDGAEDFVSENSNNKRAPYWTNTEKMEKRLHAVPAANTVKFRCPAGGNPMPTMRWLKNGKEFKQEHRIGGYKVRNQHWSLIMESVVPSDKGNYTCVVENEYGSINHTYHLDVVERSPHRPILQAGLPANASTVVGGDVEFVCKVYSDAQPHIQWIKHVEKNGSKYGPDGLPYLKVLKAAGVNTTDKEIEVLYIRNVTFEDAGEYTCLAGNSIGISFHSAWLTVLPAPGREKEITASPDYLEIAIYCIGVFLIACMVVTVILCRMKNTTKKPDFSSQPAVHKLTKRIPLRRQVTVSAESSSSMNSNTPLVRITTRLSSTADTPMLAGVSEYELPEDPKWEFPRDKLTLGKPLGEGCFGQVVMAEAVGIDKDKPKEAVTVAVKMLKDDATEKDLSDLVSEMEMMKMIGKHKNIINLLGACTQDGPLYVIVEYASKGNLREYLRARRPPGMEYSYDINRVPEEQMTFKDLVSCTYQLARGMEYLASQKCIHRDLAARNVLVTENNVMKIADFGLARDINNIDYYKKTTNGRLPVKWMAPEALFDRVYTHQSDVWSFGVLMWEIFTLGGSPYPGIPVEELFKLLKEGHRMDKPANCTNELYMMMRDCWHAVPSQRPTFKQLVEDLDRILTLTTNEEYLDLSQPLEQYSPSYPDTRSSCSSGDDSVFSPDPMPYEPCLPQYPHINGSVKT
RPS6KA2 KD1 KD2 (human), sequence (Q15349 whole entry, looked up): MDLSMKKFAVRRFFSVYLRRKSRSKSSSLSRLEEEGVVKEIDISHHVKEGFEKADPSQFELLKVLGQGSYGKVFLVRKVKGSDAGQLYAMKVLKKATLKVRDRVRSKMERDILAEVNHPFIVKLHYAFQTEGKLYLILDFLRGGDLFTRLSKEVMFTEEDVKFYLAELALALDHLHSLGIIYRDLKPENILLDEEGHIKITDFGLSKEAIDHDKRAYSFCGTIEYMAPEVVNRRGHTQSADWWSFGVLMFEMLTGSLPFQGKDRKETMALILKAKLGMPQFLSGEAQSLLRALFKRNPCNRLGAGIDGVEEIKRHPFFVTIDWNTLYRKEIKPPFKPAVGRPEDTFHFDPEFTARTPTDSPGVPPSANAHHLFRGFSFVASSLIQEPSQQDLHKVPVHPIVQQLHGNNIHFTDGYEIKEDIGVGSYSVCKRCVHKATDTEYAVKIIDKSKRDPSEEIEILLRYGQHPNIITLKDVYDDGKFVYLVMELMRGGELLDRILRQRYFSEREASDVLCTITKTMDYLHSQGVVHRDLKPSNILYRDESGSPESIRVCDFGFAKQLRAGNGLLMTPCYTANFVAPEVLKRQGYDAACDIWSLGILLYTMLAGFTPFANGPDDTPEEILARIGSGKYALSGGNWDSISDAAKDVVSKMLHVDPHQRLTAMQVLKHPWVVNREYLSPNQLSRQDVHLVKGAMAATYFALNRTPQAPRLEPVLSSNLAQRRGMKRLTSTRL
PDGFRA (human), sequence (P16234 whole entry, looked up): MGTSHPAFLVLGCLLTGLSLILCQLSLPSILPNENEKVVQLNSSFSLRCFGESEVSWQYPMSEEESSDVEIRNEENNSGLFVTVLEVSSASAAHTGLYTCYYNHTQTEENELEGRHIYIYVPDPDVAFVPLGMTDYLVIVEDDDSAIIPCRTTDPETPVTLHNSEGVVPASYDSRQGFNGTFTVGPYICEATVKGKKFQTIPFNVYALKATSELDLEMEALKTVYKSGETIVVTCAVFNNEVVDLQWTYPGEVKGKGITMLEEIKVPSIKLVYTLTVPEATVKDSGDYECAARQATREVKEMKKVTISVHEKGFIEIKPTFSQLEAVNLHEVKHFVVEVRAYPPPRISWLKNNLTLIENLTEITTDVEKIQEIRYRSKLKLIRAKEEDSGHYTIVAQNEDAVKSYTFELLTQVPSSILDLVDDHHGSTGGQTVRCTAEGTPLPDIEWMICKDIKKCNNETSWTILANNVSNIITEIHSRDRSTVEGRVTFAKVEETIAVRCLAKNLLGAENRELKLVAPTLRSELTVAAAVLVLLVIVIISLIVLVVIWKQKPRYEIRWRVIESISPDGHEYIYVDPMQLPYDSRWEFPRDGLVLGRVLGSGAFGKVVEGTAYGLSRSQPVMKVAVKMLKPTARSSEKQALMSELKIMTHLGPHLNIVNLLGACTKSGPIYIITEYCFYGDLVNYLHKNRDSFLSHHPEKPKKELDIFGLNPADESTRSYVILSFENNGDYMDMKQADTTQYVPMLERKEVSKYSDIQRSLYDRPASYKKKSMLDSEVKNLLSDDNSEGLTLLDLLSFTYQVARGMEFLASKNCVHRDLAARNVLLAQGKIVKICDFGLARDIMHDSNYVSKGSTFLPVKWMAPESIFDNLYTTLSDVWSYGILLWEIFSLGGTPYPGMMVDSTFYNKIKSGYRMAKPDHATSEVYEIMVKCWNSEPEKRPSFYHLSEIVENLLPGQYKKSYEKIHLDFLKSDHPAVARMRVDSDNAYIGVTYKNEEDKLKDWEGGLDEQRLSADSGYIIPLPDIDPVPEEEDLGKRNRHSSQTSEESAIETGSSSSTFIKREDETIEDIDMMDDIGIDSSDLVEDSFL
EGFR (human), sequence (P00533 whole entry, looked up): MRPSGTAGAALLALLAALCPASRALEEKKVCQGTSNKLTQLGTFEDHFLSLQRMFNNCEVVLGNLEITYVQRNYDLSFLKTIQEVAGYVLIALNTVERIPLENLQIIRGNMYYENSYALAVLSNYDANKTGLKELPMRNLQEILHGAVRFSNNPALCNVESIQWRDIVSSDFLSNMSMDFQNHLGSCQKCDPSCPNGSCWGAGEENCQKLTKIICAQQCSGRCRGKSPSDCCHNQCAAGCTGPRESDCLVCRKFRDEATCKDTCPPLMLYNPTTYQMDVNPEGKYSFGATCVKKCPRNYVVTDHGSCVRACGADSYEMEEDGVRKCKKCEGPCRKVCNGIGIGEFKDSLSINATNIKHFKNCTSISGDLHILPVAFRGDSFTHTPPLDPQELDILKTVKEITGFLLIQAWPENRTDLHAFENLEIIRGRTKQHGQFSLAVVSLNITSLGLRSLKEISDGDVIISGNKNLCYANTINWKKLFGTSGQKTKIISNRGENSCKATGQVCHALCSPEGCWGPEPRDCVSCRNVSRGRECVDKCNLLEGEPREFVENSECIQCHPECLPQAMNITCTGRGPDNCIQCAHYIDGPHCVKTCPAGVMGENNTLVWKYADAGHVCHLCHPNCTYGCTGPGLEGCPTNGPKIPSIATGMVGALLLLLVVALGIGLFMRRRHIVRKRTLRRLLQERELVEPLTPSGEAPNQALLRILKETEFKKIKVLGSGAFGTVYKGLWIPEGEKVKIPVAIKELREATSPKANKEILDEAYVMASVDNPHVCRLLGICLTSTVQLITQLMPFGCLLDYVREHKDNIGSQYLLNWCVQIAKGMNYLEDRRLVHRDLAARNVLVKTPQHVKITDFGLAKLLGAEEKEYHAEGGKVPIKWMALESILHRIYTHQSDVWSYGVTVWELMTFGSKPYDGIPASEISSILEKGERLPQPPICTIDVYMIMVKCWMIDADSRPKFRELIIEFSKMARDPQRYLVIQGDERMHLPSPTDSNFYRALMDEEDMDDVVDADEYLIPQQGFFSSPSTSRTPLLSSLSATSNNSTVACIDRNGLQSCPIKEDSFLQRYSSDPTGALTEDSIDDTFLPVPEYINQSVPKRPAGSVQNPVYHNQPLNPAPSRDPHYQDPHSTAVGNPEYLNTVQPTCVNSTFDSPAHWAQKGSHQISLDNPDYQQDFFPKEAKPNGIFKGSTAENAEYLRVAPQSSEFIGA

O=c1c2cc(CS(=O)(=O)NCc3ccccn3)ccc2ccc2ncc(C3CCNCC3)cc12
inhibition (CAMK4 (human); compound 0.01 µM): 2.8% | inhibition (CAMK4 (human); compound 0.1 µM): -12.8% | inhibition (AURKC (human); compound 0.01 µM): -15.8% | inhibition (AURKC (human); compound 0.1 µM): 5.6% | inhibition (PRKD3 (human); compound 0.01 µM): 3.2% | inhibition (PRKD3 (human); compound 0.1 µM): -5.2% | inhibition (FGFR4 (human); compound 0.01 µM): 12.6% | inhibition (FGFR4 (human); compound 0.1 µM): -18.4% | inhibition (STK3 (human); compound 0.01 µM): 1.5% | inhibition (STK3 (human); compound 0.1 µM): 0.6% | inhibition (BTK (human); compound 0.01 µM): 5.6% | inhibition (BTK (human); compound 0.1 µM): 5.1% | inhibition (AKT1 (human); compound 0.01 µM): 2.8% | inhibition (AKT1 (human); compound 0.1 µM): -1.1% | inhibition (RPS6KA3 KD1 KD2 (human); compound 0.01 µM): -1.1% | inhibition (RPS6KA3 KD1 KD2 (human); compound 0.1 µM): 8.1% | inhibition (PRKCB2 (human); compound 0.01 µM): 14.8% | inhibition (PRKCB2 (human); compound 0.1 µM): 6% | inhibition (MAPKAPK2 (human); compound 0.01 µM): 0.4% | inhibition (MAPKAPK2 (human); compound 0.1 µM): -1.9% | inhibition (TSSK2 (human); compound 0.01 µM): 55.4% | inhibition (TSSK2 (human); compound 0.1 µM): -6.2% | inhibition (TSSK1B (human); compound 0.01 µM): 7.3% | inhibition (TSSK1B (human); compound 0.1 µM): -5.2% | inhibition (CAMK2G (human); compound 0.01 µM): 6.3% | inhibition (CAMK2G (human); compound 0.1 µM): 2.1% | inhibition (FER (human); compound 0.01 µM): -6.3% | inhibition (FER (human); compound 0.1 µM): 0.8% | inhibition (LYN (human); compound 0.01 µM): -6% | inhibition (LYN (human); compound 0.1 µM): -9.2% | inhibition (FYN (human); compound 0.01 µM): -0.4% | inhibition (FYN (human); compound 0.1 µM): -7.3% | inhibition (EGFR (human); compound 0.01 µM): -19.5% | inhibition (EGFR (human); compound 0.1 µM): -36.5% | inhibition (RPS6KA5 KD1 KD2 (human); compound 0.01 µM): -5.1% | inhibition (RPS6KA5 KD1 KD2 (human); compound 0.1 µM): -2.9% | inhibition (FGFR2 (human); compound 0.01 µM): -8.2% | inhibition (FGFR2 (human); compound 0.1 µM): 8.7% | inhibition (MAPK11 (human); compound 0.01 µM): -1.5% | inhibition (MAPK11 (human); compound 0.1 µM): 0.7% | inhibition (MAPK13 (human); compound 0.01 µM): 5.5% | inhibition (MAPK13 (human); compound 0.1 µM): -5.7% | inhibition ([1]; compound 0.01 µM): 3.6% | inhibition ([1]; compound 0.1 µM): 26.3% | inhibition (PRKG1 (human); compound 0.01 µM): 2% and 2.1% | inhibition (PRKG1 (human); compound 0.1 µM): 3.8% and -4.6% | inhibition (PRKCG (human); compound 0.01 µM): -3.2% | inhibition (PRKCG (human); compound 0.1 µM): 1.8% | inhibition (SGK2 (human); compound 0.01 µM): -4.2% | inhibition (SGK2 (human); compound 0.1 µM): 4.7% | inhibition (AURKA (human); compound 0.01 µM): -4.6% | inhibition (AURKA (human); compound 0.1 µM): 13.1% | inhibition (PRKCE (human); compound 0.01 µM): 1.3% | inhibition (PRKCE (human); compound 0.1 µM): -2% | inhibition (PDGFRA (human); compound 0.01 µM): -15.7% | inhibition (PDGFRA (human); compound 0.1 µM): 4.1% | inhibition (CDK2 (human); compound 0.01 µM): -0.9% | inhibition (CDK2 (human); compound 0.1 µM): -0.9% | inhibition (AURKB (human); compound 0.01 µM): 3.2% | inhibition (AURKB (human); compound 0.1 µM): 17% | inhibition (PRKCH (human); compound 0.01 µM): -4.3% | inhibition (PRKCH (human); compound 0.1 µM): -6.9% | inhibition (RPS6KA2 KD1 KD2 (human); compound 0.01 µM): -8.9% | inhibition (RPS6KA2 KD1 KD2 (human); compound 0.1 µM): 2% | inhibition ([2]; compound 0.01 µM): 2.3% | inhibition ([2]; compound 0.1 µM): 16.7% | inhibition (CAMK2D (human); compound 0.01 µM): 1.7% | inhibition (CAMK2D (human); compound 0.1 µM): 13.2%

Cn1cc(-c2cnc3ccc4ccc(CS(=O)(=O)CCc5ccccn5)cc4c(=O)c3c2)cn1
inhibition (CAMK4 (human); compound 0.1 µM): -0.1% | inhibition (CAMK4 (human); compound 1.0 µM): 3.5% | inhibition (AURKC (human); compound 0.1 µM): 4.3% | inhibition (AURKC (human); compound 1.0 µM): 55.5% | inhibition (PRKD3 (human); compound 0.1 µM): -6.1% | inhibition (PRKD3 (human); compound 1.0 µM): 3.6% | inhibition (FGFR4 (human); compound 0.1 µM): -0.6% | inhibition (FGFR4 (human); compound 1.0 µM): 15.7% | inhibition (STK3 (human); compound 0.1 µM): 3.4% | inhibition (STK3 (human); compound 1.0 µM): 0.7% | inhibition (BTK (human); compound 0.1 µM): -2.1% | inhibition (BTK (human); compound 1.0 µM): 22% | inhibition (AKT1 (human); compound 0.1 µM): -1.3% | inhibition (AKT1 (human); compound 1.0 µM): 0.7% | inhibition (RPS6KA3 KD1 KD2 (human); compound 0.1 µM): -9.2% | inhibition (RPS6KA3 KD1 KD2 (human); compound 1.0 µM): -1.3% | inhibition (PRKCB2 (human); compound 0.1 µM): -4.2% | inhibition (PRKCB2 (human); compound 1.0 µM): -10.6% | inhibition (MAPKAPK2 (human); compound 0.1 µM): -14.7% | inhibition (MAPKAPK2 (human); compound 1.0 µM): -4.4% | inhibition (TSSK2 (human); compound 1.0 µM): -7.1% | inhibition (TSSK1B (human); compound 0.1 µM): 19.8% | inhibition (TSSK1B (human); compound 1.0 µM): -1.7% | inhibition (CAMK2G (human); compound 0.1 µM): -0.2% | inhibition (CAMK2G (human); compound 1.0 µM): -1.5% | inhibition (FER (human); compound 0.1 µM): -6.8% | inhibition (LYN (human); compound 0.1 µM): -7.4% | inhibition (LYN (human); compound 1.0 µM): 5.9% | inhibition (FYN (human); compound 0.1 µM): -11.5% | inhibition (FYN (human); compound 1.0 µM): -2.5% | inhibition (EGFR (human); compound 0.1 µM): -5.8% | inhibition (RPS6KA5 KD1 KD2 (human); compound 0.1 µM): -3.5% | inhibition (RPS6KA5 KD1 KD2 (human); compound 1.0 µM): -7.4% | inhibition (FGFR2 (human); compound 0.1 µM): 18.3% | inhibition (FGFR2 (human); compound 1.0 µM): 64.7% | inhibition (MAPK11 (human); compound 0.1 µM): -11% | inhibition (MAPK11 (human); compound 1.0 µM): -1.8% | inhibition (MAPK13 (human); compound 0.1 µM): -7.9% | inhibition (MAPK13 (human); compound 1.0 µM): -7.1% | inhibition ([1]; compound 0.1 µM): 4.6% | inhibition ([1]; compound 1.0 µM): 9.3% | inhibition (PRKG1 (human); compound 0.1 µM): 4.3% and 6.4% | inhibition (PRKG1 (human); compound 1.0 µM): -3.3% and -9.8% | inhibition (PRKCG (human); compound 0.1 µM): -2% | inhibition (PRKCG (human); compound 1.0 µM): -3.4% | inhibition (SGK2 (human); compound 0.1 µM): -0.4% | inhibition (SGK2 (human); compound 1.0 µM): -3.6% | inhibition (AURKA (human); compound 0.1 µM): 15.8% | inhibition (AURKA (human); compound 1.0 µM): 48% | inhibition (PRKCE (human); compound 0.1 µM): 6.5% | inhibition (PRKCE (human); compound 1.0 µM): 1.1% | inhibition (PDGFRA (human); compound 0.1 µM): -13% | inhibition (CDK2 (human); compound 0.1 µM): -6.3% | inhibition (CDK2 (human); compound 1.0 µM): -3.4% | inhibition (AURKB (human); compound 0.1 µM): 10.5% | inhibition (AURKB (human); compound 1.0 µM): 34.7% | inhibition (PRKCH (human); compound 0.1 µM): -8.3% | inhibition (PRKCH (human); compound 1.0 µM): -5.7% | inhibition (RPS6KA2 KD1 KD2 (human); compound 0.1 µM): 6.3% | inhibition (RPS6KA2 KD1 KD2 (human); compound 1.0 µM): 8.8% | inhibition ([2]; compound 0.1 µM): 2.5% | inhibition ([2]; compound 1.0 µM): 13.3% | inhibition (CAMK2D (human); compound 0.1 µM): -16.1% | inhibition (CAMK2D (human); compound 1.0 µM): -3.6%
